Data published in US9980943B2, “Methods of treating muscular dystrophy” (BOARD OF REGENTS OF THE NEVADA SYSTEM OF HIGHER EDUCATION, …, priority 2013, dated 2018).
Where two headings read alike, the source gives them in different places.

System: α7 integrin (LacZ reporter in α7LacZ+/− myoblasts)
Test: qHTS of the LOPAC library and MLSMR (online screen, α7LacZ+/− myoblasts)
Details: for activation at 0.307 µM / activation at 1.53 µM / activation at 7.66 µM / activation at 38.3 µM / Emax / EC50: Mus musculus, Myoblast; for activation at 0.307 µM: read-out: Activity at 0.307 uM [%] **; for activation at 1.53 µM: read-out: Activity at 1.530 uM [%] **; for activation at 7.66 µM: read-out: Activity at 7.660 uM [%] **; for activation at 38.3 µM: read-out: Activity at 38.30uM [%] **; for EC50: read-out: Fit LogAC50 (converted)
[1] = 48 h, read-out: Fit Infinite Activity [%]

Structure (SMILES)	activation at 0.307 µM (48 h) [%]	activation at 1.53 µM (48 h) [%]	activation at 7.66 µM (48 h) [%]	activation at 38.3 µM (48 h) [%]	Emax [1] [%]	Emax (read-out: Max Response [%]) [%]	EC50 [µM]	Curve Description	Score (Table 8 Compound data)
c1ccc(CN2CCCC3(CCCN(Cc4nc(CC5CC5)no4)C3)C2)cc1 (stereo not drawn) [Compound 200]	-40.9	-35.8	1.57	46.2	56.6	46.2	–	–	–
CC(OC(=O)c1cc(-c2cccnc2)nc2ccccc12)C(=O)Nc1ccc2ccccc2c1 (stereo not drawn) [Compound 1]	0	143	198	191	195	–	1.12	–	–
Cc1ccc(-c2onc3ccc(C(=O)/C=C/N(C)C)cc23)cc1 [Compound 39]	-7.76	5.51	52.9	69.1	69.5	–	3.55	–	–
N#Cc1ccc(Sc2nc3ccccc3[nH]2)cc1C#N [Compound 218]	14	13.1	29.8	71.5	71.8	71.5	10	–	–
CCc1ccc(N(C(=O)c2snc(C(N)=O)c2N)C(C(=O)NC2CCCC2)c2ccco2)cc1 (stereo not drawn) [Compound 17]	-18.3	9.37	52.7	67.6	71.4	–	2.51	–	–
CN(C)/C=N/c1nccc(-c2cccs2)n1 [Compound 121]	6.86	8.46	45	92.6	97.8	92.6	8.91	–	–
O=C(Nc1ccc(Oc2cccnc2)cc1)c1ccccc1Cl [Compound 215]	14.2	15.2	40.8	83.3	87.4	83.3	10	–	–
COc1ccc(CNC(=O)COC(=O)CCc2c[nH]c3ccccc23)cc1 [Compound 184]	0	-0.551	26	83.9	85.5	83.9	10	–	–
O=C(Nc1ccccc1F)c1ccc([N+](=O)[O-])s1 [Compound 81]	1.83	5.12	24.3	215	216	215	12.6	–	–
CCS(=O)(=O)N1CCN(c2ccc([N+](=O)[O-])c(NCC3CCCO3)c2)CC1 (stereo not drawn) [Compound 204]	0.881	0.157	20.1	70.3	70.8	70.3	10	–	–
CS(=O)(=O)c1ccc(Cl)c(NC(=O)CSc2nncn2-c2ccccc2)c1 [Compound 55]	-24.6	-12.1	3.46	252	253	252	12.6	–	–
O=C(NCCc1ccc(F)cc1)N[C@@H](Cc1ccccc1)C(=O)O [Compound 165]	-20.5	-20.4	0	108	109	108	–	–	–
CCc1nnc(NC(=O)c2ccc(S(=O)(=O)NCC(C)C)cc2)s1 [Compound 66]	16.2	8.68	32.8	225	227	225	12.6	–	–
CCC(CC)C(=O)Nc1c(C(=O)N2CCN(c3ccccc3)CC2)oc2ccccc12 [Compound 73]	13.5	18.6	35.7	185	187	185	12.6	–	–
Cn1ccc(C(=O)Nc2cccnc2Cl)n1 [Compound 140]	-2.76	-4.96	22.8	76	77.9	76	10	–	–
Cc1nc2c([nH]1)OC(N)=C(C#N)C21CCN(Cc2ccccc2)CC1 [Compound 132]	11.1	13.8	23	133	133	133	–	Partial	–
O=C(NC1CCCC1)c1ccc(CS(=O)(=O)Cc2ccccc2F)o1 [Compound 7]	13.4	25.3	80.6	105	107	–	4.47	–	–
CCc1c(C2(O)CCCCC2)[nH]c2ncccc12 [Compound 135]	-28.5	-29.4	-11.2	62	61.8	62	10	–	–

Structure (SMILES)	activation at 0.307 µM (48 h) [%]	activation at 1.53 µM (48 h) [%]	activation at 7.66 µM (48 h) [%]	activation at 38.3 µM (48 h) [%]	Emax [1] [%]	Emax (read-out: Max Response [%]) [%]	EC50 [µM]	Curve Description	Score (Table 8 Compound data)
CCCCNC(=O)CSc1nnc(Cc2ccc(Cl)c(Cl)c2)c(O)n1 [Compound 34]	9.41	43.8	74.3	75.4	76.4	–	1.41	–	–
Cc1cc(C)nc(NC(=O)c2ccc(Cl)cc2Cl)n1 [Compound 198]	2.39	0	17.6	79.1	79.2	79.1	10	–	–
COc1ccc(NC(=O)c2cccc(N3C(=O)c4ccc(C(=O)Nc5ccc(OC)c(O)c5)cc4C3=O)c2)cc1O [Compound 13]	-24.8	-27.4	80.7	95.6	94.7	–	4.47	–	–
NC(=O)c1nsc(C(=O)N(c2ccccc2)C(C(=O)NCc2ccc(F)cc2)c2ccc(O)cc2)c1N (stereo not drawn) [Compound 16]	-30.2	5.64	58.2	75.2	77.5	–	2.24	–	–
O=S(=O)(N/C(=N/C1CCCCC1)c1ccccc1F)c1ccccc1 [Compound 156]	0	0	22.9	65.3	67.8	65.3	10	–	–
Cc1cc(OCC(=O)NC(C)C)ccc1Cl [Compound 11]	0	7.6	83.9	102	101	–	3.98	–	–
COc1cccc(NC(=O)c2ccc3c(c2)CCCC3)c1 [Compound 162]	-31.8	-27.5	26.3	54.3	55.3	54.3	–	–	–
CN(C#N)c1nccc(-c2cccs2)n1 [Compound 190]	-30.5	-25.3	6.31	79.6	87.5	79.6	–	–	–
CC(C)/N=C(\S)NN=C1CCCCCCCCCCC1 [Compound 36]	7.67	25.7	65.1	78.6	81.2	–	3.16	–	–
O=[N+]([O-])c1ccc(Cl)cc1N/N=C/c1ccncc1 [Compound 112]	0	1.53	54	73.8	74	73.8	5.62	–	43
Cc1cc(NC(=O)c2ccc(Cl)cc2Cl)no1 [Compound 19]	-20.1	15	43.9	52.1	52.7	–	1.41	–	–
CC1CCN(S(=O)(=O)c2ccc(S(=O)(=O)N3CCCC3)cc2)CC1 [Compound 72]	0.91	-2.48	54.5	132	136	132	8.91	–	–
Cc1nc2c(cnn2-c2ccccc2)c(=O)n1/N=C/c1ccccc1 [Compound 171]	10	10.2	28.1	68.4	69.5	68.4	10	–	–
COCCn1c(=N)c(S(=O)(=O)c2ccc(Br)cc2)cc2c(=O)n3ccccc3nc21 [Compound 96]	-7.89	1.1	54.5	73.2	75	73.2	4.47	–	–
Cc1ccc(OCC(=O)N2CCN(S(=O)(=O)c3ccc4c(c3)OCCO4)CC2)c(C)c1 [Compound 27]	-26.2	3.31	51.6	53.8	55	–	2	–	–
CNP(=O)(Oc1ccccc1)OC12CC3CC(CC(C3)C1)C2 (stereo not drawn) [Compound 182]	0	0	34.7	93.6	98.2	93.6	10	–	–
COc1ccc(C(=O)ONC(=N)c2cccc(C)c2)cc1OC [Compound 78]	10.1	15.5	69.8	148	163	148	10	–	–
